Test results from US8389500B2, “Fused heterocyclic compounds as ion channel modulators” (Gilead Sciences, Inc., priority 2008, dated 2013).

Key:
[1] = biological target: T1, wild-type human cardiac sodium channel, hNav1.5 (late sodium current) (Homo sapiens, UniProt Q14524); test: Late INa screening assay (PatchXpress whole cell patch clamp); type: cell-based; conditions: HEK293 hNav1.5, late INa generated with 10 μM Tefluthrin (some experiments 50 nM ATX II); for inhibition at 10 µM: 10 μM test compound, read-out: Late INa % blk (10 μM test cmpd); for inhibition at 1 µM: 1 μM test compound, read-out: Late INa % blk (1 μM test cmpd)
T1 construct: host or cells: HEK293
T1 sequence (Q14524 whole entry): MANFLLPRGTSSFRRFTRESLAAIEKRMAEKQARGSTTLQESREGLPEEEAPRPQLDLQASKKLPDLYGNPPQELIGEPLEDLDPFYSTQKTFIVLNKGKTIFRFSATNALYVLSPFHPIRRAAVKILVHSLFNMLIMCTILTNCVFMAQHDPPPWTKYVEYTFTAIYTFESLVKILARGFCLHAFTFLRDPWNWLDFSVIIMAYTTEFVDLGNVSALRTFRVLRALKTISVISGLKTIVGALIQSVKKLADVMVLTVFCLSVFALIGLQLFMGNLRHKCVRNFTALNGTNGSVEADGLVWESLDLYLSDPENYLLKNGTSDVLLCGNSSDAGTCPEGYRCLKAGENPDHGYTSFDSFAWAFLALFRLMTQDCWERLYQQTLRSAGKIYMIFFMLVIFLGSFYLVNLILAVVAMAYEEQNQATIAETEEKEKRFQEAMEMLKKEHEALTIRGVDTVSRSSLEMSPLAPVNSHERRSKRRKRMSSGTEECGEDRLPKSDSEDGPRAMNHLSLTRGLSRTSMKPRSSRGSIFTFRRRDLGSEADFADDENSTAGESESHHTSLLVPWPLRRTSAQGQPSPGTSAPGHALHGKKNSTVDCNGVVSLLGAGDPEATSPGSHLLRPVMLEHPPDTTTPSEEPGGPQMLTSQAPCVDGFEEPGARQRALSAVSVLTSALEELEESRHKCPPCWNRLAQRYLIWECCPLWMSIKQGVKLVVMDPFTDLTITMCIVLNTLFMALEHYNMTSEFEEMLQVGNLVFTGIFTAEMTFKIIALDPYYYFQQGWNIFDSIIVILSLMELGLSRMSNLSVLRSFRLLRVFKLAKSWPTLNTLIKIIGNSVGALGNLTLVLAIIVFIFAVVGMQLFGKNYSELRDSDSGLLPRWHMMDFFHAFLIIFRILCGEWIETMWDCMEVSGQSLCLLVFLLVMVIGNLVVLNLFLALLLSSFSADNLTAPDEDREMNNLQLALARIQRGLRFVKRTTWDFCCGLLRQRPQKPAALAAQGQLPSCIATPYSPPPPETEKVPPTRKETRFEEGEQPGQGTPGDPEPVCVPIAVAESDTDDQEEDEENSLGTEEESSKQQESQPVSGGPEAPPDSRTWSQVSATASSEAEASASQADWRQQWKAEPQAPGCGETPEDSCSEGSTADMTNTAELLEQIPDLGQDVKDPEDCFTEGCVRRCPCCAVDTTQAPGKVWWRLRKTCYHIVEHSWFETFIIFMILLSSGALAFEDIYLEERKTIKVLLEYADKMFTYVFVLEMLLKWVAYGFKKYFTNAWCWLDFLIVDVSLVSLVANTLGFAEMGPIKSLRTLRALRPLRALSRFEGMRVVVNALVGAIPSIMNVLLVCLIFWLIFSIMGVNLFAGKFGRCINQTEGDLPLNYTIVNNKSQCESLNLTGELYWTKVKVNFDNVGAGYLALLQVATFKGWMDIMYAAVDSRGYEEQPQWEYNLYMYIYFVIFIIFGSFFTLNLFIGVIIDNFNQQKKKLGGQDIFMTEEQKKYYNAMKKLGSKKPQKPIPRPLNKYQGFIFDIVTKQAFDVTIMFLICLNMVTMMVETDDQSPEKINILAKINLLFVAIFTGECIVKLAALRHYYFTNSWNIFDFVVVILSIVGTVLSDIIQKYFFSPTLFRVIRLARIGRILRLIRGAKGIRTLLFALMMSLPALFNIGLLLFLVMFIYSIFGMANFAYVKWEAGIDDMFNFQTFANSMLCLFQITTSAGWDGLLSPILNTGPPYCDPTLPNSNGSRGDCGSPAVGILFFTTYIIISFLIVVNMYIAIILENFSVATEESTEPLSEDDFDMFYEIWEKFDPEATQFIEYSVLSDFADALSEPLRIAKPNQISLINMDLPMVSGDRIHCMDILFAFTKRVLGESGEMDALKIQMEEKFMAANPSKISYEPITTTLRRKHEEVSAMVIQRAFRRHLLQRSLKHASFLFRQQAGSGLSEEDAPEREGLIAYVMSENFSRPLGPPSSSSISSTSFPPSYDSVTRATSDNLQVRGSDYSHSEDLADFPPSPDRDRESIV
Outline: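 Late sodium current block was assessed by automated whole cell patch clamp on a PatchXpress 7000A using HEK293 cells stably expressing wild-type human hNav1.5 without beta subunits. Late current was induced with 10 μM Tefluthrin or 50 nM ATX II. Channels were stepped from −120 mV to −20 mV for 250 ms at 0.1 Hz at 24-27° C. Current was normalized to 0Na baseline and expressed as percent block.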

[2] = biological target: T2, hERG potassium channel (Homo sapiens, UniProt Q12809); test: hERG screening assay (PatchXpress patch clamp, CHO cells); type: cell-based; conditions: hERG in CHO cells, peak current at −50 mV; for hERG Patch Clamp hERG % blk 1 μm: 1 μm test compound; for hERG Patch Clamp hERG % blk 10 μm: 10 μm test compound
T2 construct: expressed in transfected cells; host or cells: CHO (Chinese Hamster Ovary)
T2 sequence (Q12809 whole entry): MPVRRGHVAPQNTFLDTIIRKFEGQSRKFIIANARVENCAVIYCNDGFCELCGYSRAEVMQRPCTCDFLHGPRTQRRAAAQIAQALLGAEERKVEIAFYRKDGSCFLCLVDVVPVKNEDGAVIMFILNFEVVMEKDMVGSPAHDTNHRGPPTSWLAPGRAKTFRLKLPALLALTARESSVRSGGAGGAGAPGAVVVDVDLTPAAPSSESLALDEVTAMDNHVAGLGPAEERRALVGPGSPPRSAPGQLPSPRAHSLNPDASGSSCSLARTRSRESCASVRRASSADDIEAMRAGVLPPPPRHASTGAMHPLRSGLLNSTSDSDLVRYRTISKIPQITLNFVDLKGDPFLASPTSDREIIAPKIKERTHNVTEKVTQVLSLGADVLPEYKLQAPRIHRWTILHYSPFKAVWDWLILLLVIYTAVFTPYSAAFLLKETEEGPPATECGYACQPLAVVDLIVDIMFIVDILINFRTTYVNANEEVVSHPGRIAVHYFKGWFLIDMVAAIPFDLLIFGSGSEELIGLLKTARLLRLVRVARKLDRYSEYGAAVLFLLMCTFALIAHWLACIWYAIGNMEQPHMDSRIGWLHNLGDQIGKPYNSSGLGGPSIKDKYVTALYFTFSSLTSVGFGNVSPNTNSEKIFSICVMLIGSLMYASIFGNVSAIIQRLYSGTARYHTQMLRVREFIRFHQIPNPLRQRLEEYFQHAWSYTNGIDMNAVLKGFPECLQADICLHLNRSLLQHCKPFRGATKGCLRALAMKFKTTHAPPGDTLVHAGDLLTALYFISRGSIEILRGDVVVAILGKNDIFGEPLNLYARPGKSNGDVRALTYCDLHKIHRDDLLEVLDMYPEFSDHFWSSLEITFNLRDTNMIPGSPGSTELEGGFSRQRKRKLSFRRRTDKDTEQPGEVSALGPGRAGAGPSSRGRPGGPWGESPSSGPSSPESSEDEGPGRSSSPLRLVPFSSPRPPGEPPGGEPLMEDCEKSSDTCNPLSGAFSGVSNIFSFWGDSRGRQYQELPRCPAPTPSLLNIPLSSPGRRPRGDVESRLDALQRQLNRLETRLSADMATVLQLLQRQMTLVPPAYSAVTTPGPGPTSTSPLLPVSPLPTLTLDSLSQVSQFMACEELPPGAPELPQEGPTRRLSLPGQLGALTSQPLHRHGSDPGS
Method: Compounds were screened to test their activity in blocking the hERG potassium channel. The hERG channel is heterologously expressed in a CHO (Chinese Hamster Ovary) cell line. Cells are maintained with standard tissue culture procedures and stable channel expression is maintained with 500 μg/ml G418 in the culture medium. Cells are harvested for testing on the PatchXpress automated patch clamp with Accumax (Innovative Cell Technologies, San Diego, Calif.) to isolate single cells.
The following solutions are used for electrophysiological recordings. The external solution contains: 2 mM CaCl2; 2 mM MgCl2; 4 mM KCl; 150 mM NaCl; 10 mM Glucose; 10 mM HEPES (pH 7.4 with 1M NaOH, osmolarity). The internal solution contains: 140 mM KCl, 10 mM MgCl2, 6 mM EGTA, 5 mM HEPES, 5 mM ATP (pH adjusted to 7.25 with KOH).
hERG channels are activated when the voltage is stepped to +20 mV from the −80 mV holding potential. During a 5 second step at +20 mV, the channels activate and then largely inactivate, so the currents are relatively small. Upon returning to −50 mV from +20 mV, hERG currents transiently become much larger as inactivation is rapidly removed and then the channel closes. The first step to −50 mV for 300 ms is used as a baseline for measuring the peak amplitude during the step to −50 mV after channel activation. The peak current at −50 mV is measured both under control conditions and after addition of compound.
All compounds are prepared as 10 mM DMSO stocks in glass vials. Stock solutions are mixed by vigorous vortexing and sonication for about 2 minutes at room temperature. For testing, compounds are diluted in glass vials using an intermediate dilution step in pure DMSO and then further diluted to working concentrations in external solution. Dilutions are prepared no longer than 20 minutes before use.
After achieving the whole-cell configuration, cells are monitored for 90 seconds to assess stability and washed with external solution for 66 seconds. The voltage protocol described above is then applied to the cells every 12 seconds and throughout the whole procedure. Only cells with stable recording parameters and meeting specified health criteria are allowed to enter the compound addition procedure.
External solution containing 0.1% DMSO (vehicle) is applied to the cells first to establish the control peak current amplitude. After allowing the current to stabilize for 3 to 5 minutes, 1 μM and then 10 μM test compounds are applied. Each compound concentration is added 4 times and cells are kept in test solution until the effect of the compound reaches steady state or for a maximum of 12 minutes. After addition of test compound, a positive control (1 μM Cisapride) is added and must block >95% of the current for the experiment to be considered valid. Washout in the external solution compartment is performed until the recovery of the current reaches steady state. Data are analyzed using DataXpress, Clampfit (Molecular Devices, Inc., Sunnyvale) and Origin 7 (Originlab Corp.)

CS(=O)(=O)Nc1ccc(-c2cccc(C(F)(F)F)c2)cc1 [PT-001, N-[3′-(trifluoromethyl)biphenyl-4-yl]methanesulfonamide]
inhibition at 10 µM [1]: 58.1% | hERG Patch Clamp hERG % blk 1 μm [2]: 10% | hERG Patch Clamp hERG % blk 10 μm [2]: 66%

COc1cc(NS(C)(=O)=O)ccc1-c1ccc(Cl)c(F)c1 [PT-003, N-(4′-chloro-3′-fluoro-2-methoxybiphenyl-4-yl)methanesulfonamide]
inhibition at 1 µM [1]: 11.2% | inhibition at 10 µM [1]: 58.3% | hERG Patch Clamp hERG % blk 1 μm [2]: 10% | hERG Patch Clamp hERG % blk 10 μm [2]: 28.3%

CS(=O)(=O)Nc1ccc(-c2ccc(C(F)(F)F)cc2)c(C(F)(F)F)c1 [PT-013, N-[2,4′-bis(trifluoromethyl)biphenyl-4-yl]methanesulfonamide]
inhibition at 10 µM [1]: 54.1% | hERG Patch Clamp hERG % blk 1 μm [2]: 10.5% | hERG Patch Clamp hERG % blk 10 μm [2]: 29%

CS(=O)(=O)Nc1ccc(-c2ccc(Cl)c(F)c2)c(Cl)c1 [PT-017, N-(2,4′-dichloro-3′-fluorobiphenyl-4-yl)methanesulfonamide]
inhibition at 1 µM [1]: 34.8% | inhibition at 10 µM [1]: 69.5% | hERG Patch Clamp hERG % blk 1 μm [2]: 21% | hERG Patch Clamp hERG % blk 10 μm [2]: 80%

CS(=O)(=O)Nc1ccc(-c2ccc(C(F)(F)F)cc2)c(Cl)c1 [PT-018, N-[2-chloro-4′-(trifluoromethyl)biphenyl-4-yl]methanesulfonamide]
inhibition at 10 µM [1]: 50.6% | hERG Patch Clamp hERG % blk 1 μm [2]: 10% | hERG Patch Clamp hERG % blk 10 μm [2]: 10%

CS(=O)(=O)Nc1ccc(-c2ccccc2OC(F)(F)F)c(Cl)c1 [PT-022, N-[2-chloro-2′-(trifluoromethoxy)biphenyl-4-yl]methanesulfonamide]
inhibition at 10 µM [1]: 54.8% | hERG Patch Clamp hERG % blk 1 μm [2]: 10% | hERG Patch Clamp hERG % blk 10 μm [2]: 92%

CCS(=O)(=O)Nc1ccc(-c2ccc(Cl)c(F)c2)c(Cl)c1 [PT-026, N-(2,4′-dichloro-3′-fluorobiphenyl-4-yl)ethanesulfonamide]
inhibition at 1 µM [1]: 33.8% | inhibition at 10 µM [1]: 78.5% | hERG Patch Clamp hERG % blk 1 μm [2]: 10% | hERG Patch Clamp hERG % blk 10 μm [2]: 10%

CS(=O)(=O)Nc1ccc(-c2ccc(Oc3ccccc3)cc2)cc1Cl [PT-034, N-(3-chloro-4′-phenoxybiphenyl-4-yl)methanesulfonamide]
inhibition at 1 µM [1]: 25.9% | inhibition at 10 µM [1]: 69.7% | hERG Patch Clamp hERG % blk 1 μm [2]: 10% | hERG Patch Clamp hERG % blk 10 μm [2]: 10%

Cc1cc(NS(C)(=O)=O)ccc1-c1cccc(OC(F)(F)F)c1 [PT-040, N-[2-methyl-3′-(trifluoromethoxy)biphenyl-4-yl]methanesulfonamide]
inhibition at 1 µM [1]: 32.5% | inhibition at 10 µM [1]: 68.3% | hERG Patch Clamp hERG % blk 1 μm [2]: 10% | hERG Patch Clamp hERG % blk 10 μm [2]: 25%

Cc1cc(NS(C)(=O)=O)ccc1-c1ccc(Oc2ccccc2)cc1 [PT-046, N-(2-methyl-4′-phenoxybiphenyl-4-yl)methanesulfonamide]
hERG Patch Clamp hERG % blk 1 μm [2]: 10% | hERG Patch Clamp hERG % blk 10 μm [2]: 28.5%

O=S(=O)(Nc1ccc(-c2cccc(OC(F)(F)F)c2)c(Cl)c1)C1CC1 [PT-047, N-[2-chloro-3′-(trifluoromethoxy)biphenyl-4-yl]cyclopropanesulfonamide]
inhibition at 1 µM [1]: 48.6% | inhibition at 10 µM [1]: 77.7% | hERG Patch Clamp hERG % blk 1 μm [2]: 10% | hERG Patch Clamp hERG % blk 10 μm [2]: 28.5%

O=S(=O)(Nc1ccc(-c2ccc(F)c(Cl)c2)c(Cl)c1)C1CC1 [PT-049, N-(2,3′-dichloro-4′-fluorobiphenyl-4-yl)cyclopropanesulfonamide]
inhibition at 10 µM [1]: 60.1% | hERG Patch Clamp hERG % blk 1 μm [2]: 10% | hERG Patch Clamp hERG % blk 10 μm [2]: 32%

O=S(=O)(Nc1ccc(-c2ccc(OC(F)(F)F)cc2)c(Cl)c1)C1CC1 [PT-050, N-[2-chloro-4′-(trifluoromethoxy)biphenyl-4-yl]cyclopropanesulfonamide]
inhibition at 10 µM [1]: 61% | hERG Patch Clamp hERG % blk 1 μm [2]: 2% | hERG Patch Clamp hERG % blk 10 μm [2]: 47.5%

O=S(=O)(Nc1ccc(-c2cccc(OC(F)(F)F)c2)cc1)C1CC1 [PT-060, N-[3′-(trifluoromethoxy)biphenyl-4-yl]cyclopropanesulfonamide]
inhibition at 10 µM [1]: 54.4% | hERG Patch Clamp hERG % blk 1 μm [2]: 10% | hERG Patch Clamp hERG % blk 10 μm [2]: 35.5%

Cc1cc(N(CC(=O)O)S(C)(=O)=O)ccc1-c1ccc(Oc2ccccc2)cc1 [PT-082, N-(2-methyl-4′-phenoxybiphenyl-4-yl)-N-(methylsulfonyl)glycine]
inhibition at 10 µM [1]: 19.9% | hERG Patch Clamp hERG % blk 1 μm [2]: 10% | hERG Patch Clamp hERG % blk 10 μm [2]: 10%

Cc1cc(N(Cc2ccc(C(=O)O)cc2)S(C)(=O)=O)ccc1-c1ccc(Oc2ccccc2)cc1 [PT-108, 4-{[(2-methyl-4′-phenoxybiphenyl-4-yl)(methylsulfonyl)amino]methyl}benzoic acid]
inhibition at 10 µM [1]: 55.6% | hERG Patch Clamp hERG % blk 1 μm [2]: 10% | hERG Patch Clamp hERG % blk 10 μm [2]: 10%

Cc1cc(N(Cc2cccc(C(=O)O)c2)S(C)(=O)=O)ccc1-c1ccc(Oc2ccccc2)cc1 [PT-112, 3-{[(2-methyl-4′-phenoxybiphenyl-4-yl)(methylsulfonyl)amino]methyl}benzoic acid]
inhibition at 10 µM [1]: 35.5% | hERG Patch Clamp hERG % blk 1 μm [2]: 10% | hERG Patch Clamp hERG % blk 10 μm [2]: 21.5%
